# Reference: patent publication EP0971739B1 (priority 1997, dated 1998)
# Test system: tetanus toxoid
# Design: species or system ICR mice
# Conditions: mouse, in vivo
structure (smiles),measurement,value
"CCCCCCCCCCCCCCCC(=O)OC[C@H](COP(=O)([O-])OCC[N+](C)(C)C)OC(=O)CCCCCCCCCCCCCCC [DPPC, 1,2-Dipalmitoyl-sn-glycero-3-phosphocholine]",Anti-Tetanus Toxoid Titer^-1 Fecal Extract d7P2° IgA,<50
same,Anti-Tetanus Toxoid Titer^-1 Fecal Extract d7P2° IgG,<50
same,Anti-Tetanus Toxoid Titers^-1 IgG1,"25,600"
same,Anti-Tetanus Toxoid Titers^-1 IgG2a,"1,600"
same,Anti-Tetanus Toxoid Titers^-1 IgG2b,"3,200"
same,Serum Anti-Tetanus Toxoid Titer^-1 IgA-Specific d10P2°,100
same,Serum Anti-Tetanus Toxoid Titer^-1 IgA-Specific d10P3°,200
same,Serum Anti-Tetanus Toxoid Titer^-1 IgG-Specific d10P2°,"6,400"
same,Serum Anti-Tetanus Toxoid Titer^-1 IgG-Specific d10P3°,"6,400"
